The experiment concerns model rabbit with antigen-induced arthritis. Put plainly: Hyaluronic acid synthesis in the knee joint of a model rabbit with antigen-induced arthritis. It counts as in vivo, Japanese white rabbit. The source says: A 0.5% (w/v %) compound 1 solution was obtained by mixing respective solutions of a 1% (w/v) compound 1 solution (phosphate buffer solution), a 10% (w/v) ovalbumin solution (phosphate buffer solution) and [^3H] glucosamine (phosphate buffer solution, 37 MBq/mL) at a ratio of 5:1:4 (v:v:v). In the preparation of a control solution, a phosphate buffer solution was used in place of the compound 1 solution. In the preparation of a sodium hyaluronate (HA) solution, ARTZ Dispo (registered trademark) (manufactured by Seikagaku Corporation) was used in place of the compound 1 solution. Further, a Normal solution not containing ovalbumin (an arthritis-inducing substance) was obtained by mixing respective solutions of a phosphate buffer solution and [^3H] glucosamine (phosphate buffer solution, 37 MBq/mL) at a ratio of 3:2 (v:v). As test substances, the following substances were used.
Ovalbumin (SIGMA) was dissolved and prepared with physiological saline (Otsuka Pharmaceutical Factory, Inc.) at 1% (w/v), and a water-in-oil emulsion was prepared with Freund's complete adjuvant (CAPPEL) at 1:1 (v:v). The emulsion was intradermally administered at a total dose of 1 mL to dozens of sites of the back of a Japanese white rabbit (male, 16 weeks of age, Oriental Yeast Industry Co., Ltd.) under general anesthesia (midazolam, xylazine, and butorphanol at 0.67 mg/kg, 5.3 mg/kg, and 0.67 mg/kg, i.v., respectively) to sensitize the rabbit. On day 12 after sensitization, the rabbit was additionally sensitized by administering the emulsion in the same manner. […]
Since glucosamine is a constituent monosaccharide of hyaluronic acid, in hyaluronic acid newly synthesized in the living body after administration of the test substance, [^3H] glucosamine is incorporated. […] Thereafter, the radioactivity (dpm, disintegrations per minute) of each fraction was measured using a scintillation counter, and the radioactivity (the amount of [^3H] glucosamine incorporated into newly synthesized hyaluronic acid) was evaluated. […]

[1] abbreviates: 0.5% (w/v), 0.5 mL/joint, 48 hours.

Consider one substance from patent publication US20210052633A1, “HYALURONIC ACID SYNTHESIS PROMOTER, METHOD FOR PROMOTING HYALURONIC ACID SYNTHESIS, AND CELL EVALUATION METHOD” (SEIKAGAKU CORPORATION, priority 2018, published 2021).

In the case of “Aminoethanol-diclofenac-introduced sodium hyaluronate [compound 1]”, the “molecular weight peak of hyaluronic acid synthesized in the knee joint” value (0.5% (w/v) solution, 0.5 mL/joint into the knee joint cavity, joint fluid at 48 hours, normal rabbit peak higher than 2,300,000) was ~2,300,000. Besides, under setting [1], the “amount of high molecular weight hyaluronic acid produced in the knee joint” value is recorded as “prominent as compared with the sodium hyaluronate administration group” and the “production amount of hyaluronic acid in the knee joint” value is reported as “more prominent in the compound 1 administration group even as compared with the normal group”.
